# How the values were obtained:
# [1] = test system: T.b. brucei, T.b. gambiense and T.b. rhodesiense; test: Cultivated bloodstream trypomastigote (TRY) in-vitro screen; assay type: cell-based
# Description: Culture systems developed in the last decade have used mammalian cell feeder layers to support the growth of dividing populations of bloodstream trypomastigotes of T. brucei spp. Some of these systems have been used in chemotherapy studies, including; (1) bovine fibroblast culture - T. brucei models to test some standard and experimental compounds, (2) murine bone marrow culture - T.b. gambiense model to screen inosine analogues and platinum and hypolipidemic compounds, and (3) Microtus embryonic fibroblast culture (MEF) - T.b. rhodesiense model to test standard and experimental drugs. These systems give a good indication of in-vivo activity (see Table 3). They measure activity against dividing cells rather than specific macromolecular synthesis pathways and can be readily established in micro-titre plates. The MEF and bone marrow cell feeder layers can be used to grow a range of strains of T. brucei spp., offering the possibility of examining variations in drug susceptibility and resistance between strains. The presence of a feeder layer, however, limits the opportunities for the automation of these systems.
# (§1) In-vitro and in-vivo models were used to test activities of a selection of many compounds. Those activities are summarized in Tables 1-3, showing variation between systems and species. Activities measured in the MP mo and HM mo models have shown the best correlation with results obtained in hamster and mouse models.
# [2] = test system: T.b. brucei, T.b. gambiense and T.b. rhodesiense; test: African trypanosomiasis mouse model, in-vivo
# Method: (§2) Primary screening for new trypanocides has made extensive use of rodent systems, in which host survival time is a simple indicator of drug activity. In-vitro screens have used a variety of trypomastigote types (see Table 3, below). […] Most early in-vitro screens employed a short test in which bloodstream trypomastigotes were isolated from an infected rodent and maintained for up to 24 h in a simple drug-containing media. Two significant modifications of this technique include maintaining isolated bloodstream trypomastigotes in drug-containing media for 3-4 hours at 37° C in micro-titre plates and their subsequent viability assessed by the uptake of radiolabelled precursors or motility and infectivity to mice.
# as §1
# [3] = test system: T.b. brucei, T.b. gambiense and T.b. rhodesiense; test: Procyclic trypomastigote (TRY) in-vitro screen; assay type: cell-based; further: key: - no/poor activity,; + fair/moderate activity,; ++ good/excellent activity
# Method: as §2, §1
# [4] = test system: T.b. brucei, T.b. gambiense and T.b. rhodesiense; test: Isolated bloodstream trypomastigote (TRY) in-vitro screen; assay type: cell-based
# Method: as §2
# In-vitro studies on isolated bloodstream trypomastigotes were also used in the rational biochemical approaches towards the chemotherapy of T. brucei infections involving inhibitors of carbohydrate catabolism salicyl hydroxamic acid plus glycerol), of polyamine synthesis (methylgyoxal bis-guanylhydrazone and - DFMO), and of surface coat glycoprotein synthesis (Tunicamycin). In these studies, activity of the compounds are shown in-vitro and in-vivo, whereas the sensitivity of isolated bloodstream trypomastigotes to toxic oxygen radicals generated by naphthoquinones was not shown by the parasites in mice. The activity of the standard anti-trypanosomals-melarsoprol, pentamidine and suramin and tested compounds according to the present invention in in-vitro systems is shown in Table 3.
# as §1
# L major/L mexicana [5] = test: Amastigotes (AM) in mouse or human macrophages (mos), in-vitro; assay type: cell-based; details: Lm., Amastigote
# Description: (§3) Amastigotes of Leishmania can be cultivated in a wide range of mammalian cells, some of which may be used in in-vitro screens. These include (1) a Sticker dog sarcoma (fibroblast) cell line, (2) transformed rodent macrophage cell lines, (3) primary isolated mouse peritoneal macrophages (MP mo), and (4) human monocyte-derived macrophages (HM mo). The methods are similar for all models. Amastigote or promastigote infected cells are maintained in a medium containing the drug for 4-7 days, at 37 C for L. donovani and 33-35 C for L. major and L. mexicana. Drug activity is then assessed by counting (I) the number of infected host cells and/or (II) the number of amastigotes/100 host cells.
# as §1
# L donovani [6] = test: as above; assay type: cell-based; details: Ld., Amastigote
# Description: as §3, §1
# L donovani [7] = test: Amastigote-promastigote (AM-PRO) transformation, in-vitro; assay type: cell-based; details: Ld.
# L major/L mexicana [8] = test: as above; assay type: cell-based; details: Lm.
# L major/L mexicana [9] = test: Amastigotes (AM) in cell lines, in-vitro; assay type: cell-based; details: Lm., Amastigote; further: key: - no/poor activity,; + fair/moderate activity,; ++ good/excellent activity
# Description: as §3, §1
# L donovani [10] = test: Amastigotes (AM) in cell lines, in-vitro; assay type: cell-based; details: Ld., Amastigote; further: key: - no/poor activity,; + fair/moderate activity,; ++ good/excellent activity
# Description: as §3, §1
# L major/L mexicana [11] = test: Leishmania mouse/hamster models, in-vivo; details: Lm. Further: key: - no/poor activity,; + fair/moderate activity,; ++ good/excellent activity.
# Description: as §1
# L donovani [12] = test: Leishmania mouse/hamster models, in-vivo; details: Ld. Further: key: - no/poor activity,; + fair/moderate activity,; ++ good/excellent activity.
# Description: as §1
# L major/L mexicana [13] = test: Leishmania promastigote (PRO) in-vitro screen; assay type: cell-based; details: Lm.
# Description: (§4) Following initial infection, the amastigote is the only form present in the mammalian host, surviving and dividing in various macrophage populations. Differences between the promastigote and amastigote in form and habitat are not matched by known biochemical dissimilarities. However, the drug susceptibility of the cultured promastigote, used in many early chemotherapy screens, contrasts markedly with that of the amastigote (see Table 1, below), most importantly to the clinically used pentavalent antimonials - sodium stibogluconate (Pentostam) and meglumine antimoniate (Glucantime).
# as §3, §1
# L donovani [14] = test: Leishmania promastigote (PRO) in-vitro screen; assay type: cell-based; details: Ld.
# Description: as §4, §3, §1
# T. cruzi [15] = test: T. cruzi intracellular amastigote (AM) in-vitro screen; assay type: cell-based
# Method: Dividing populations can be cultivated in muscle cells, fibroblasts and macrophages, following infection with trypomastigotes. After the initial infection, there is normally a period of 4-5 days during which the amastigotes divide before transforming, via the epimastigote stage, back to trypomastigotes which escape from the cell. Drug activity is measured during this 4-5 day period. A dividing host cell population, low infection rate, and the presence of trypomastigotes in the overlay can complicate the interpretation of results.
# Intracellular amastigote models can use a range of muscle (skeletal and cardiac) and fibroblast (e.g. HeLa, HePa) cell lines, macrophages, and chick embryo cells. […] To overcome the problems of overgrowth of the monolayer and a low percentage of infected cells, often associated with the use of cell lines, irradiated rat L6 myoblasts are used.
# T. cruzi [16] = test: T. cruzi mouse model, in-vivo
# Description: as §1
smiles,measurement,setting,value
"Cc1ccc(C(=O)Nc2ccc(S(=O)(=O)O)c3cc(S(=O)(=O)O)cc(S(=O)(=O)O)c23)cc1NC(=O)c1cccc(NC(=O)Nc2cccc(C(=O)Nc3cc(C(=O)Nc4ccc(S(=O)(=O)O)c5cc(S(=O)(=O)O)cc(S(=O)(=O)O)c45)ccc3C)c2)c1 [Suramin, suramin, reference compound]","activity, cultivated bloodstream TRY",[1],+
same,"activity, mouse model",[2],+ +
same,"activity, procyclic TRY",[3],-
same,"activity, isolated bloodstream TRY",[4],"-,+"
"N=C(N)c1ccc(OCCCCCOc2ccc(C(=N)N)cc2)cc1 [Pentamidine, pentamidine, reference compound]","Activity, AM in mouse or human mos",L major/L mexicana [5],+ +
same,"Activity, AM in mouse or human mos",L donovani [6],+
same,"Activity, AM-PRO transform-ation",L donovani [7],+ +
same,"activity, cultivated bloodstream TRY",[1],+ +
same,"Activity, AM-PRO transform-ation",L major/L mexicana [8],+ +
same,"Activity, AM in cell lines",L major/L mexicana [9],+
same,"Activity, AM in cell lines",L donovani [10],-
same,"activity, mouse model",[2],+ +
same,"Activity, mouse/ hamster models",L major/L mexicana [11],-
same,"Activity, mouse/ hamster models",L donovani [12],+
same,"activity, isolated bloodstream TRY",[4],+ +
same,"Activity, PRO",L major/L mexicana [13],+ +
same,"Activity, PRO",L donovani [14],+ +
"CC1CS(=O)(=O)CCN1/N=C/c1ccc([N+](=O)[O-])o1 (centres unmarked) [Nifurtimox, nifurtimox]","activity, intracellular AM",T. cruzi [15]; T. cruzi strain Sonya,"++(Y,WBH, Sonya)"
same,"activity, intracellular AM",T. cruzi [15]; T. cruzi strain WBH,"++(Y,WBH, Sonya)"
same,"activity, intracellular AM",T. cruzi [15]; T. cruzi strain Y,"++(Y,WBH, Sonya)"
same,"activity, mouse model",T. cruzi [16]; T. cruzi strain CL,++ and +
same,"activity, mouse model",T. cruzi [16]; T. cruzi strain Sonya,+
same,"activity, mouse model",T. cruzi [16]; T. cruzi strain Tu,+
same,"activity, mouse model",T. cruzi [16]; T. cruzi strain WBH,++
same,"activity, mouse model",T. cruzi [16]; T. cruzi strain Y,++ and +
"O.O.O.O.O.O.O.O.O.O=C([O-])[C@@H]1[O][Sb]2([O-])([O][Sb]34([OH])[O][C@H]([C@H](O)CO)[C@H]([O]3)[C@H](C(=O)[O-])[O]4)[O][C@H]([C@H](O)CO)[C@@H]1[O]2.[Na+].[Na+].[Na+] [Sodium stibogluconate, sodium stibogluconate, reference compound]","Activity, AM in mouse or human mos",L major/L mexicana [5],+ +
same,"Activity, AM in mouse or human mos",L donovani [6],+ +
same,"Activity, AM-PRO transform-ation",L major/L mexicana [8],+ +
same,"Activity, mouse/ hamster models",L donovani [12],+ +

# From EP0462621A2, “Use of particular compounds for manufacture of pharmaceutical formulations for treatment against various parasites, mycoplasmas, other indications and other infections” (Prendergast, Patrick Thomas, priority 1990, dated 1991)
